Test results reported in PubChem BioAssay AID1918946 (Molecular Pharmacology Branch, DTP, NCI, 2023).
Where “and” joins values, the source holds several entries; their conditions need not be identical. Equal entries are not always repeated.

Test system: 885512-296-R-J2-PDC complex spheroid viability
Assay: Anticancer human tumor 885512-296-R-J2-PDC patient-derived breast carcinoma cell line growth inhibition
Settings: for viability, T/C: stronger effect = lower value; active = viability on the fitted dose curve at most 10% of control; inactive = the rest
Method in brief: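 Complex spheroids of tumor cells with HUVEC and human MSCs, exposed to iadademstat combined with other agents. Each agent tested in half-log steps from near clinical Cmax (else 10 microM top), DMSO ≤0.25%.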

[1] = curve of first compound, second compound 0.1 µM
[2] = curve of first compound, second compound 0.316 µM
[3] = curve of first compound, second compound 1 µM
[4] = curve of first compound, second compound 3.16 µM
[5] = curve of first compound, second compound 10 µM
[6] = second compound 0.1 µM, first compound 0.00316 µM
[7] = second compound 0.1 µM, first compound 0.01 µM
[8] = second compound 0.1 µM, first compound 0.0316 µM
[9] = second compound 0.1 µM, first compound 0.1 µM
[10] = second compound 0.1 µM, first compound 0.316 µM
[11] = second compound 0.1 µM, first compound 1 µM
[12] = second compound 0.316 µM, first compound 0.00316 µM
[13] = second compound 0.316 µM, first compound 0.01 µM
[14] = second compound 0.316 µM, first compound 0.0316 µM
[15] = second compound 0.316 µM, first compound 0.1 µM
[16] = second compound 0.316 µM, first compound 0.316 µM
[17] = second compound 0.316 µM, first compound 1 µM
[18] = second compound 1 µM, first compound 0.00316 µM
[19] = second compound 1 µM, first compound 0.01 µM
[20] = second compound 1 µM, first compound 0.0316 µM
[21] = second compound 1 µM, first compound 0.1 µM
[22] = second compound 1 µM, first compound 0.316 µM
[23] = second compound 1 µM, first compound 1 µM
[24] = second compound 3.16 µM, first compound 0.00316 µM
[25] = second compound 3.16 µM, first compound 0.01 µM
[26] = second compound 3.16 µM, first compound 0.0316 µM
[27] = second compound 3.16 µM, first compound 0.1 µM
[28] = second compound 3.16 µM, first compound 0.316 µM
[29] = second compound 3.16 µM, first compound 1 µM
[30] = second compound 10 µM, first compound 0.00316 µM
[31] = second compound 10 µM, first compound 0.01 µM
[32] = second compound 10 µM, first compound 0.0316 µM
[33] = second compound 10 µM, first compound 0.1 µM
[34] = second compound 10 µM, first compound 0.316 µM
[35] = second compound 10 µM, first compound 1 µM
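Note: spheroids exposed to agents for 7 days before viability read.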

Nc1ncn(C2CC(O)C(CO)O2)c(=O)n1 (configuration not stated) + NC1CCC(NC2CC2c2ccccc2)CC1
27.1 nM: IC50 [4]
29.9 nM: IC50 [2]
30.8 nM: IC50 [1]
19.8 nM: IC50 [5]
inactive: viability, T/C [6] 91.3% | viability, T/C [7] 91.5% | viability, T/C [8] 46.9% | viability, T/C [9] 25.2% | viability, T/C [10] 12.7% | viability, T/C [11] 13.6% | viability, T/C [12] 105% | viability, T/C [13] 75.5% | viability, T/C [14] 53% | viability, T/C [15] 24.6% | viability, T/C [16] 14.8% | viability, T/C [17] 15.4% | viability, T/C [18] 101% | viability, T/C [19] 74.1% | viability, T/C [20] 47% | viability, T/C [21] 30.8% | viability, T/C [22] 14.5% | viability, T/C [23] 16.1% | viability, T/C [24] 80.1% | viability, T/C [25] 72.6% | viability, T/C [26] 44.4% | viability, T/C [27] 28.9% | viability, T/C [28] 19.8% | viability, T/C [29] 16.1% | viability, T/C [30] 74.8% | viability, T/C [31] 59% | viability, T/C [32] 45.4% | viability, T/C [33] 21.4% | viability, T/C [34] 15.6% | viability, T/C [35] 11.5%
28.3 nM: IC50 [3]

CC[C@@]1(O)C(=O)OCc2c1cc1n(c2=O)Cc2cc3c(CN(C)C)c(O)ccc3nc2-1
0.41 nM and 0.678 nM: IC50 (curve of compound)
inactive: viability, T/C (compound 0.000316 µM) 59.8% and 76.7% | viability, T/C (compound 0.001 µM) 16.6% and 36.4%
active: viability, T/C (compound 0.00316 µM) 8.16% and 3.47% | viability, T/C (compound 0.01 µM) 7.89% and 3.58% | viability, T/C (compound 0.0316 µM) 9.39% and 2.75% | viability, T/C (compound 0.1 µM) 9.51% and 1.92%

CC(C)CC(NC(=O)C(Cc1ccccc1)NC(=O)c1cnccn1)B(O)O (configuration not stated) + NC1CC1c1ccc(-c2cccc(O)c2)cc1
active: viability, T/C (second compound 0.1 µM, first compound 0.001 µM) 1.21% | viability, T/C [6] 7.48% | viability, T/C [7] 0.02% | viability, T/C [8] 0.02% | viability, T/C [9] 0.09% | viability, T/C (second compound 0.316 µM, first compound 0.001 µM) 0.69% | viability, T/C [12] 0.05% | viability, T/C [13] 0.01% | viability, T/C [14] 0.01% | viability, T/C [15] 0.08% | viability, T/C (second compound 1 µM, first compound 0.001 µM) 0.65% | viability, T/C [18] 0.02% | viability, T/C [19] 0.01% | viability, T/C [20] 0.01% | viability, T/C [21] 0.09% | viability, T/C (second compound 3.16 µM, first compound 0.001 µM) 0.58% | viability, T/C [24] 0.16% | viability, T/C [25] 0.01% | viability, T/C [26] 0.02% | viability, T/C [27] 0.1% | viability, T/C (second compound 10 µM, first compound 0.001 µM) 0.27% | viability, T/C [30] 0.11% | viability, T/C [31] 0.12% | viability, T/C [32] 0.14% | viability, T/C [33] 0.14%
< 0.316 nM: IC50 [1] | IC50 [2] | IC50 [3] | IC50 [4] | IC50 [5]
inactive: viability, T/C (second compound 0.1 µM, first compound 0.000316 µM) 18.7% | viability, T/C (second compound 0.316 µM, first compound 0.000316 µM) 19% | viability, T/C (second compound 1 µM, first compound 0.000316 µM) 18.5% | viability, T/C (second compound 3.16 µM, first compound 0.000316 µM) 15.5% | viability, T/C (second compound 10 µM, first compound 0.000316 µM) 11.2%

COc1ccc([C@@H](O)c2cc(-c3ncnc4cc(N5CCOCC5)ccc34)c(F)cc2Cl)nn1 + NC1CC1c1ccc(-c2cccc(O)c2)cc1
3860 nM: IC50 [2]
3510 nM: IC50 [1]
1450 nM: IC50 [4]
3330 nM: IC50 [3]
448 nM: IC50 [5]
inactive: viability, T/C [8] 126% | viability, T/C [9] 127% | viability, T/C [10] 94.4% | viability, T/C [11] 86.9% | viability, T/C (second compound 0.1 µM, first compound 3.16 µM) 54.5% | viability, T/C (second compound 0.1 µM, first compound 10 µM) 12.9% | viability, T/C [14] 111% | viability, T/C [15] 121% | viability, T/C [16] 103% | viability, T/C [17] 94.7% | viability, T/C (second compound 0.316 µM, first compound 3.16 µM) 57.6% | viability, T/C (second compound 0.316 µM, first compound 10 µM) 11.8% | viability, T/C [20] 98.3% | viability, T/C [21] 109% | viability, T/C [22] 87.9% | viability, T/C [23] 78.9% | viability, T/C (second compound 1 µM, first compound 3.16 µM) 52.2% | viability, T/C (second compound 1 µM, first compound 10 µM) 11.8% | viability, T/C [26] 108% | viability, T/C [27] 104% | viability, T/C [28] 71.6% | viability, T/C [29] 58.8% | viability, T/C (second compound 3.16 µM, first compound 3.16 µM) 35.8% | viability, T/C (second compound 3.16 µM, first compound 10 µM) 9.34% | viability, T/C [32] 78.4% | viability, T/C [33] 72.1% | viability, T/C [34] 50.6% | viability, T/C [35] 39.7% | viability, T/C (second compound 10 µM, first compound 3.16 µM) 25.5%
active: viability, T/C (second compound 10 µM, first compound 10 µM) 6.59%
